These results are taken from patent US20100041892A1, “Therapeutic agent for diabetes” (priority 2005, published 2010).

A word on the melting point: it is the temperature of the solid-liquid transition. For the compound `COCCOc1ccc(CCCOC(=O)NS(=O)(=O)NCCC(C)C)c(Oc2ncc(C(F)(F)F)cc2Cl)c1` [Example 203, 3-[2-{[3-chloro-5-(trifluoromethyl)pyridin-2-yl]oxy}-4-(2-methoxyethoxy)phenyl]propyl {[(3-methylbutyl)amino]sulfonyl}carbamate], the melting point is 123 to 123.5 °C.

The compound `COCCOc1ccc(CCCOC(=O)NS(=O)(=O)NCCc2ccccc2)c(Oc2ncc(C(F)(F)F)cc2Cl)c1` [Example 206, 3-[2-{[3-chloro-5-(trifluoromethyl)pyridin-2-yl]oxy}-4-(2-methoxyethoxy)phenyl]propyl {[(2-phenylethyl)amino]sulfonyl}carbamate] showed a melting point of 110 to 113 °C.

Turning to `CCCCN(C(=O)CCc1ccc(OCCOC)cc1Oc1ncc(C(F)(F)F)cc1Cl)S(N)(=O)=O` [Example 212, N-(aminosulfonyl)-N-butyl-3-[2-{[3-chloro-5-(trifluoromethyl)pyridin-2-yl]oxy}-4-(2-methoxyethoxy)phenyl]propanamide], the melting point lay within 102 to 103 °C.

The compound `COCCOc1ccc(CCC(=O)N(CCOC)S(N)(=O)=O)c(Oc2ncc(C(F)(F)F)cc2Cl)c1` [Example 213, N-(aminosulfonyl)-3-[2-{[3-chloro-5-(trifluoromethyl)pyridin-2-yl]oxy}-4-(2-methoxyethoxy)phenyl]-N-(2-methoxyethyl)propanamide] came in with a melting point of 101 to 101.1 °C.

Compound `CCCCCNS(=O)(=O)NC(=O)/C=C/c1ccc(OCCOC)cc1Oc1ncc(C(F)(F)F)cc1Cl` [Example 215, (2E)-3-[2-{[3-chloro-5-(trifluoromethyl)pyridin-2-yl]oxy}-4-(2-methoxyethoxy)phenyl]-N-[(pentylamino)sulfonyl]acrylamide] displayed a melting point of 120 to 122 °C.

On to `CCCCCS(=O)(=O)NC(=O)CCc1ccc(OCCOC)cc1Oc1ccccc1` [Example 219, 3-[4-(2-methoxyethoxy)-2-phenoxyphenyl]-N-(pentylsulfonyl)propanamide], for which the melting point lay in the range of 70.4 to 70.5 °C.

The compound `C/C(=C\c1ccc(OC(C)C)cc1Oc1ncc(C(F)(F)F)cc1Cl)C(=O)NS(=O)(=O)NCCc1ccccc1` [Example 220, (2E)-3-(2-{[3-chloro-5-(trifluoromethyl)pyridin-2-yl]oxy}-4-isopropoxyphenyl)-2-methyl-N-{[(2-phenylethyl)amino]sulfonyl}acrylamide] came in with a melting point of 147 to 147.5 °C.

In turn, `COCCCNS(=O)(=O)NC(=O)/C(C)=C/c1ccc(OC(C)C)cc1Oc1ncc(C(F)(F)F)cc1Cl` [Example 221, (2E)-3-(2-{[3-chloro-5-(trifluoromethyl)pyridin-2-yl]oxy}-4-isopropoxyphenyl)-N-{[(3-methoxypropyl)amino]sulfonyl}-2-methylacrylamide] returned a melting point of 120 to 121 °C.

In turn, `C/C(=C\c1ccc(OC(C)C)cc1Oc1ncc(C(F)(F)F)cc1Cl)C(=O)NS(=O)(=O)NCCOC(C)C` [Example 222, (2E)-3-(2-{[3-chloro-5-(trifluoromethyl)pyridin-2-yl]oxy}-4-isopropoxyphenyl)-N-{[(2-isopropoxyethyl)amino]sulfonyl}-2-methylacrylamide] yielded a melting point of 137.5 to 137.7 °C.

In the case of `COCCCNS(=O)(=O)NC(=O)/C(C)=C/c1ccc(OCCOC)cc1Oc1ncc(C(F)(F)F)cc1Cl` [Example 227, (2E)-3-[2-{[3-chloro-5-(trifluoromethyl)pyridin-2-yl]oxy}-4-(2-methoxyethoxy)phenyl]-N-{[(3-methoxypropyl)amino]sulfonyl}-2-methylacrylamide], the melting point lay within 121 to 122 °C.

As to `COCCOc1ccc(/C=C/C(=O)NS(=O)(=O)NCCc2ccccc2)c(Oc2ncc(C(F)(F)F)cc2Cl)c1` [Example 228, (2E)-3-[2-{[3-chloro-5-(trifluoromethyl)pyridin-2-yl]oxy}-4-(2-methoxyethoxy)phenyl]-N-{[(2-phenylethyl)amino]sulfonyl}acrylamide], the melting point fell in the range of 85 to 85.5 °C.

In turn, `COCCOc1ccc(/C=C/C(=O)NS(=O)(=O)c2ccc(Cl)cc2)c(Oc2ncc(C(F)(F)F)cc2Cl)c1` [Example 229, (2E)-N-[(4-chlorophenyl)sulfonyl]-3-[2-{[3-chloro-5-(trifluoromethyl)pyridin-2-yl]oxy}-4-(2-methoxyethoxy)phenyl]acrylamide] yielded a melting point of 182 to 182.5 °C.

Turning to `COCCOc1ccc(/C=C(\C)C(=O)NS(=O)(=O)c2ccc(Cl)cc2)c(Oc2ncc(C(F)(F)F)cc2Cl)c1` [Example 230, (2E)-N-[(4-chlorophenyl)sulfonyl]-3-[2-{[3-chloro-5-(trifluoromethyl)pyridin-2-yl]oxy}-4-(2-methoxyethoxy)phenyl]-2-methylacrylamide], the melting point fell in the range of 145.7 to 145.8 °C.

For `C/C(=C\c1ccc(OC(C)C)cc1Oc1ncc(C(F)(F)F)cc1Cl)C(=O)NS(=O)(=O)NCC1CCCO1` (stereo not shown) [Example 231, (2E)-3-(2-{[3-chloro-5-(trifluoromethyl)pyridin-2-yl]oxy}-4-isopropoxyphenyl)-2-methyl-N-{[(tetrahydrofuran-2-ylmethyl)amino]sulfonyl}acrylamide], the melting point was in the range of 125.3 to 126.5 °C.

As for `COCCOc1ccc(/C=C/C(=O)NS(=O)(=O)c2cccc(Cl)c2)c(Oc2ncc(C(F)(F)F)cc2Cl)c1` [Example 232, (2E)-N-[(3-chlorophenyl)sulfonyl]-3-[2-{[3-chloro-5-(trifluoromethyl)pyridin-2-yl]oxy}-4-(2-methoxyethoxy)phenyl]acrylamide], the melting point was in the range of 157 to 158 °C.

In turn, `COCCOc1ccc(/C=C/C(=O)NS(=O)(=O)c2ccc(C(F)(F)F)cc2)c(Oc2ncc(C(F)(F)F)cc2Cl)c1` [Example 234, (2E)-3-[2-{[3-chloro-5-(trifluoromethyl)pyridin-2-yl]oxy}-4-(2-methoxyethoxy)phenyl]-N-{[4-(trifluoromethyl)phenyl]sulfonyl}acrylamide] displayed a melting point of 186.3 to 186.5 °C.

Take `COCCOc1ccc(/C=C/C(=O)NS(=O)(=O)c2ccccc2Cl)c(Oc2ncc(C(F)(F)F)cc2Cl)c1` [Example 235, (2E)-N-[(2-chlorophenyl)sulfonyl]-3-[2-{[3-chloro-5-(trifluoromethyl)pyridin-2-yl]oxy}-4-(2-methoxyethoxy)phenyl]acrylamide]: the melting point was 168 to 169 °C.

For `COCCOc1ccc(/C=C/C(=O)NS(=O)(=O)c2ccc(C)cc2)c(Oc2ncc(C(F)(F)F)cc2Cl)c1` [Example 236, (2E)-3-[2-{[3-chloro-5-(trifluoromethyl)pyridin-2-yl]oxy}-4-(2-methoxyethoxy)phenyl]-N-[(4-methylphenyl)sulfonyl]acrylamide], the melting point was 102.5 to 106.5 °C.

The compound `COCCOc1ccc(/C=C/C(=O)NS(=O)(=O)c2ccc(F)cc2)c(Oc2ncc(C(F)(F)F)cc2Cl)c1` [Example 237, (2E)-3-[2-{[3-chloro-5-(trifluoromethyl)pyridin-2-yl]oxy}-4-(2-methoxyethoxy)phenyl]-N-[(4-fluorophenyl)sulfonyl]acrylamide] displayed a melting point of 183 to 184 °C.

In turn, `COCCOc1ccc(/C=C/C(=O)NS(=O)(=O)c2ccccn2)c(Oc2ncc(C(F)(F)F)cc2Cl)c1` [Example 239, (2E)-3-[2-{[3-chloro-5-(trifluoromethyl)pyridin-2-yl]oxy}-4-(2-methoxyethoxy)phenyl]-N-(pyridin-2-ylsulfonyl)acrylamide] yielded a melting point of 164 to 165 °C.

The compound `COCCOc1ccc(/C=C/C(=O)NS(=O)(=O)c2cccnc2)c(Oc2ncc(C(F)(F)F)cc2Cl)c1` [Example 240, (2E)-3-[2-{[3-chloro-5-(trifluoromethyl)pyridin-2-yl]oxy}-4-(2-methoxyethoxy)phenyl]-N-(pyridin-3-ylsulfonyl)acrylamide] showed a melting point of 165 to 167 °C.

`COCCOc1ccc(/C=C/C(=O)NS(=O)(=O)c2cccc(C)c2)c(Oc2ncc(C(F)(F)F)cc2Cl)c1` [Example 241, (2E)-3-[2-{[3-chloro-5-(trifluoromethyl)pyridin-2-yl]oxy}-4-(2-methoxyethoxy)phenyl]-N-[(3-methylphenyl)sulfonyl]acrylamide] yielded a melting point of 147 to 147.5 °C.

The compound `COCCOc1ccc(/C=C/C(=O)NS(=O)(=O)C(F)(F)F)c(Oc2ncc(C(F)(F)F)cc2Cl)c1` [Example 243, (2E)-3-[2-{[3-chloro-5-(trifluoromethyl)pyridin-2-yl]oxy}-4-(2-methoxyethoxy)phenyl]N-[(trifluoromethyl)sulfonyl]acrylamide] returned a melting point of 125.5 to 128 °C.

As to `COCCOc1ccc(/C=C(\C)C(=O)NS(=O)(=O)CC(F)(F)F)c(Oc2ncc(C(F)(F)F)cc2Cl)c1` [Example 244, (2E)-3-[2-{[3-chloro-5-(trifluoromethyl)pyridin-2-yl]oxy}-4-(2-methoxyethoxy)phenyl]-2-methyl-N-[(2,2,2-trifluoroethyl)sulfonyl]acrylamide], the melting point lay within 159 to 159.5 °C.

In turn, `COCCOc1ccc(/C=C(\C)C(=O)NS(=O)(=O)C(F)(F)F)c(Oc2ncc(C(F)(F)F)cc2Cl)c1` [Example 245, (2E)-3-[2-{[3-chloro-5-(trifluoromethyl)pyridin-2-yl]oxy}-4-(2-methoxyethoxy)phenyl]-2-methyl-N-[(trifluoromethyl)sulfonyl]acrylamide] returned a melting point of 146 to 147 °C.

Regarding `COCCOc1ccc(/C=C/C(=O)NS(=O)(=O)CC(F)(F)F)c(Oc2ncc(C(F)(F)F)cc2Cl)c1` [Example 246, (2E)-3-[2-{[3-chloro-5-(trifluoromethyl)pyridin-2-yl]oxy}-4-(2-methoxyethoxy)phenyl]-N-[(2,2,2-trifluoroethyl)sulfonyl]acrylamide], the melting point fell in the range of 146 to 147.5 °C.

As to `CCCCCS(=O)(=O)NC(=O)/C=C/c1ccc(OCCCOCCOC)cc1Oc1ncc(C(F)(F)F)cc1Cl` [Example 254, (2E)-3-{2-{[3-chloro-5-(trifluoromethyl)pyridin-2-yl]oxy}-4-[3-(2-methoxyethoxy)propoxy]phenyl}-N-(pentylsulfonyl)acrylamide], the melting point was in the range of 103 to 105 °C.

On to `CCCCCS(=O)(=O)NC(=O)/C=C/c1ccc(OCCCOCC2CC2)cc1Oc1ncc(C(F)(F)F)cc1Cl` [Example 259, (2E)-3-{2-{[3-chloro-5-(trifluoromethyl)pyridin-2-yl]oxy}-4-[3-(cyclopropylmethoxy)propoxy]phenyl}-N-(pentylsulfonyl)acrylamide], for which the melting point lay within 124 to 125 °C.
